Laboratory results: patent publication US12680077B2, “Generating populations of human blood and blood vessel progenitors from pluripotent stem cells” (The Board of Trustees of the Leland Stanford Junior …, priority 2020, dated 2026)

Key:
Assay type in all cases: cell-based, human
[1] = tested on: hPSC-derived day-3 trunk artery cells; experiment: Differentiation of hPSC-derived day-3 trunk artery cells into hemogenic endothelium / HSC-like cells (qPCR, flow cytometry); details: 24 hours, OSM and LIF withheld together
Description: (§1) FIG. 4: Efficient generation of trunk artery and hemogenic endothelium from hPSCs within 3 and 6 days, respectively. A) Cartoon of the strategy to generate trunk artery, hemogenic endothelium and HSC-like cells. B) Retinoic acid (RA) signaling induces HOXA1-5 genes in hPSC-derived trunk artery cells; day 1 hPSC-derived primitive streak cells were differentiated into trunk artery cells over the course of 48 hours, in the presence or absence of an RA agonist (TTNPB). C) Flow cytometry (left) and qPCR (right) of hPSC-derived trunk artery cells; for the qPCR data, gene expression is normalized for each gene to undifferentiated hPSCs (gene expression levels in hPSCs=1.0); as a negative control, hPSC-derived artery cells (white bar, generated in the absence of RA agonist) is shown. D) hPSC-derived day-3 trunk artery cells were differentiated into hemogenic endothelium for 24 hours in the complete hemogenic endothelium medium (Forskolin, SB505124, OSM and LIF), or in media where either Forskolin was withheld; SB505124 was withheld; or both OSM and LIF were withheld.
FIG. 12: Optimizing the generation of trunk artery, hemogenic endothelium and HSC-like cells from hPSCs. A) Retinoic acid (RA) signaling induces HOXA1-5 genes in hPSC-derived trunk artery cells; day 1 hPSC-derived primitive streak cells were differentiated into trunk artery cells over the course of 48 hours, in the presence or absence of RA agonists (ATRA, AM580 or TTNPB) on day 2 alone (for 24 hours), day 3 alone (for 24 hours) or day 2-3 interval (for 48 hours) B) hPSC-derived trunk artery cells can be generated in defined conditions on a defined extracellular matrix (ECM); hPSCs were plated on Geltrex (an undefined ECM matrix); bulk laminin; or recombinant vitronectin or laminin-511. C) hPSCs were differentiated into day-3 artery cells (without RA agonist) or day-3 trunk artery cells (with RA agonist); and then were further differentiated over the course of 6 further days into day-9 HSC-like cells. […]
(§2) Quantitative PCR. […]

[2] = tested on: day 6 hPSC-derived hemogenic endothelium; experiment: Differentiation of day 6 hemogenic endothelium into day 9 HSC-like cells (qPCR, flow cytometry); details: for expression of GATA1 and CD45RA: SR1 and UM171 applied together, days 6-9; for formation of hPSC-derived HSC-like cells: presence vs absence of both UM171 and SR1, 3 days, flow cytometry for CD45+ CD45RA- on day 9
Description: FIG. 13: Optimizing the generation of, and characterizing, hPSC-derived HSC-like cells. […] B) qPCR was performed during hPSC differentiation into HSC-like cells every 24 hours; gene expression was normalized such that undifferentiated hPSCs=1.0. […] D) Flow cytometry strategy to purify i) CD144^+ CD45^+ CD45RA^− hPSC-derived day-9 HSC-like cells and ii) CD34^+ CD90^+ cord blood HSPCs vs. CD34^+ CD90^− cord blood non-HSCs (expanded for 3 days ex vivo prior to FACS sorting) for transcriptional analysis.
Day 6-9 (HSC-like cell induction, 72 hours [Step 5b]). Day 6 hemogenic endothelium cells were briefly washed (DMEM/F12, Thermo Fisher) and then differentiated towards HSC-like cells in CDM3 media supplemented with Forskolin (10 μM), IL1β (5 ng/mL, R&D Systems), LIF (20 ng/mL), OSM (10 ng/mL), SB505124 (2 μM), SR1 (750 nM, Cellagen Technology) and UM171 (75 nM, ApexBio) for 72 hours. HSC-like cell induction media was refreshed every 24 hours.
Flow cytometry. Undifferentiated and differentiated hPSCs were dissociated by incubation in TrypLE Express (Gibco) for 5 minutes at 37° C. Subsequently, dissociated cells in TrypLE Express were diluted 1:10 in DMEM/F12 and centrifuged (pelleted) at 500 g for 5 minutes. Each cell pellet was resuspended in FACS buffer (PBS+1 mM EDTA [Invitrogen]+2% v/v FBS [Atlanta Bio]+1% Penicillin/Streptomycin [Gibco]) supplemented with fluorescently-conjugated primary antibodies, and antibody staining occurred for 30 minutes on ice protected from light. After staining, cells were washed twice with FACS buffer and resuspended in 200 μL FACS buffer with DAPI (1:10,000, Biolegend) for live/dead discrimination. Samples were run on a Beckman Coulter CytoFlex analyzer (Stanford Stem Cell Institute FACS Core). For data analysis, cells were gated based on forward and side scatter with height and width used for doublet discrimination. Subsequently, live cells that were negative for DAPI were gated for all marker analyses and calculations of population frequency.
Quantitative PCR. Undifferentiated or differentiated hPSCs were lysed in 350 μL of RLT Plus Buffer and RNA was extracted using the RNeasy Plus Mini Kit (Qiagen) according to the manufacturer's protocol. 300 ng of total RNA was reverse transcribed into cDNA for qPCR using the High-Capacity cDNA Reverse Transcription Kit (Applied Biosystems) according to the manufacturer's protocol. qPCR was performed in 384-well format as previously described (Loh et al., 2016), using gene-specific forward and reverse primers on a QuantStudio 5 qPCR machine (Thermo Fisher). Expression of all genes was normalized to the levels of the reference gene YWHAZ.

[3] = tested on: day 1 hPSC-derived primitive streak cells; experiment: Differentiation of day 1 primitive streak into trunk artery cells with RA agonists (qPCR, flow cytometry); details: for HOXA1-HOXA5 expression by day 3: RA agonist for 48 hours (days 2-3), qPCR; for formation of CD144+ CD43+ blood progenitors by day 9: RA agonist on days 2-3, then 6 further days of differentiation
Description: as §1
FIG. 12: Optimizing the generation of trunk artery, hemogenic endothelium and HSC-like cells from hPSCs. A) Retinoic acid (RA) signaling induces HOXA1-5 genes in hPSC-derived trunk artery cells; day 1 hPSC-derived primitive streak cells were differentiated into trunk artery cells over the course of 48 hours, in the presence or absence of RA agonists (ATRA, AM580 or TTNPB) on day 2 alone (for 24 hours), day 3 alone (for 24 hours) or day 2-3 interval (for 48 hours) B) hPSC-derived trunk artery cells can be generated in defined conditions on a defined extracellular matrix (ECM); hPSCs were plated on Geltrex (an undefined ECM matrix); bulk laminin; or recombinant vitronectin or laminin-511. C) hPSCs were differentiated into day-3 artery cells (without RA agonist) or day-3 trunk artery cells (with RA agonist); and then were further differentiated over the course of 6 further days into day-9 HSC-like cells. […] G) qPCR of hPSC differentiation into trunk arteries (day 3) and their conversion into hemogenic endothelium (day 6); qPCR data are normalized such that for each gene, expression levels in undifferentiated hPSCs=1.0.
Day 2 (trunk dorsal lateral mesoderm induction, 24 hours [Step 2b]). Day 1 mid primitive streak cells were briefly washed (DMEM/F12, Thermo Fisher) and then differentiated towards dorsal lateral mesoderm in CDM2 media supplemented with BMP4 (40 ng/mL), GDC-0941 (2.5 μM, Cellagen Technology), Forskolin (10 μM, Tocris), SB-505124 (2 μM, Tocris), VEGF (100 ng/mL, R&D Systems), XAV939 (1 μM, Tocris), AA2P (200 μg/mL) and TTNPB (0.5 nM) for 24 hours (i.e., the same media as dorsal lateral mesoderm induction, with the addition of TTNPB). […]
as §2

[4] = tested on: day 1 hPSC-derived primitive streak; experiment: Dorsal lateral mesoderm induction from day 1 primitive streak (qPCR on day 2); details: day 2 of differentiation, 24 hours
Description: FIG. 1: Efficient generation of human primitive streak and dorsal lateral mesoderm from hPSCs. A) Chronology of artery and vein development in vivo within mouse embryos (top) and in vitro from human pluripotent stem cells (hPSCs; bottom). B) Efficient generation of MIXL1^+ mid primitive streak within 24 hours of hPSC differentiation, as assayed by flow cytometry of a MIXL1-GFP reporter hESC line C) In vivo identification of candidate dorsal lateral mesoderm: from a scRNAseq profile of the E7.0 mouse embryo, Hand1^+ Elf5^− lateral mesoderm was computationally identified and then sub-clustered; marker genes shown superimposed on t-SNE (top) and in violin plots (below [CPM: counts per million]). […]
as §2

Cc1cccc(-c2[nH]c(C(C)(C)C)nc2-c2ccc3c(c2)OCO3)n1 [SB505124, 2-[4-(1,3-Benzodioxol-5-yl)-2-(1,1-dimethylethyl)-1H-imidazol-5-yl]-6-methyl-pyridine]
RUNX1 expression by day 4 upon individual withdrawal of the agent from hemogenic endothelium medium [1]: reduced

CC(C)n1cnc2c(NCCc3ccc(O)cc3)nc(-c3csc4ccccc34)nc21 [SR1]
expression of GATA1 and CD45RA [2]: decreased
formation of hPSC-derived HSC-like cells [2]: enhanced

C/C(=C\c1ccc(C(=O)O)cc1)c1ccc2c(c1)C(C)(C)CCC2(C)C [TTNPB]
HOXA1-HOXA5 expression by day 3 [3]: enhanced
formation of CD144+ CD43+ blood progenitors by day 9 [3]: promote

Cn1nnc(-c2ccc3c(c2)[nH]c2nc(Cc4ccccc4)nc(NC4CCC(N)CC4)c23)n1 (centres unmarked) [UM171]
expression of GATA1 and CD45RA [2]: decreased
formation of hPSC-derived HSC-like cells [2]: enhanced

AM580
HOXA1-HOXA5 expression by day 3 [3]: enhanced
formation of CD144+ CD43+ blood progenitors by day 9 [3]: promote

IL1: inflammatory signal IL1β
blood formation in vitro ([2]; inflammatory signal added days 6-9): modestly promoted

LIF: GP130 agonist
RUNX1 expression by day 4 upon individual withdrawal of the agent from hemogenic endothelium medium [1]: reduced

VEGF
expression of SCL, LMO2 and FLI1 (dorsal lateral mesoderm specification) [4]: upregulated

B1: BMP: BMP agonist; BMP4 used in the experiments (protein, UniProt P12644 293-408, looked up)
Bone morphogenetic protein 4: SPKHHSQRARKKNKNCRRHSLYVDFSDVGWNDWIVAPPGYQAFYCHGDCPFPLADHLNSTNHAIVQTLVNSVNSSIPKACCVPTELSAISMLYLDEYDKVVLKNYQEMVVEGCGCR
expression of SCL, LMO2 and FLI1 (dorsal lateral mesoderm specification) [4]: upregulated

B2: OSM: GP130 agonist (protein, UniProt P13725 26-221, looked up)
Oncostatin-M: AAIGSCSKEYRVLLGQLQKQTDLMQDTSRLLDPYIRIQGLDVPKLREHCRERPGAFPSEETLRGLGRRGFLQTLNATLGCVLHRLADLEQRLPKAQDLERSGLNIEDLEKLQMARPNILGLRNNIYCMAQLLDNSDTAEPTKAGRGASQPPTPTPASDAFQRKLEGCRFLHGYHRFMHSVGRVFSKWGESPNRSRR
RUNX1 expression by day 4 upon individual withdrawal of the agent from hemogenic endothelium medium [1]: reduced
